# Measurements taken from US8569302B2, “Inhibitors of flaviviridae viruses” (Gilead Sciences, Inc., priority 2009, dated 2013).
# System: human hepatoma Huh-7 cell line harboring a HCV replicon
# Test: HCV replicon assay (inhibition of viral replication, luciferase readout)
# Assay type: cell-based
# Details: Hepatitis C virus, 72 h, Huh-7 HCV replicon cells, 3 days incubation
# Experimental: The anti-HCV activity of the compounds of this invention was tested in a human hepatoma Huh-7 cell line harboring a HCV replicon. The assay comprised the following steps:
# Step 1: Compound Preparation and Serial Dilution.
# Serial dilution was performed in 100% DMSO in a 384-well plate. A solution containing a compound at 225-fold concentration of the starting final serial dilution concentration was prepared in 100% DMSO and 15 μL added to the pre-specified wells in column 3 or 13 of a polypropylene 384-well plate. The rest of the 384-well plate was filled with 10 μL 100% DMSO except for columns 23 and 24, where 10 μL of 500 μM a HCV protease inhibitor (ITMN-191) in 100% DMSO was added. The HCV protease inhibitor was used a control of 100% inhibition of HCV replication. The plate was then placed on a Biomek FX Workstation to start the serial dilution. The serial dilution was performed for ten cycles of 3-fold dilution from column 3 to 12 or from column 13 to 22.
# Step 2: Cell Culture Plate Preparation and Compound Addition
# To each well of a black polypropylene 384-well plate, 90 μL of cell media containing 1600 suspended Huh-7 HCV replicon cells was added with a Biotek uFlow Workstation. A volume of 0.4 μL of the compound solution was transferred from the serial dilution plate to the cell culture plate on a Biomek FX Workstation. The DMSO concentration in the final assay condition was 0.44%. The plates were incubated for 3 days at 37° C. with 5% CO2 and 85% humidity.
# Step 3: Detection of Cytotoxicity and Inhibition of Viral Replication
# a) Assessment of cytotoxicity: The media in the 384-well cell culture plate was aspirated with a Biotek EL405 plate-washer. A volume of 50 μL of a solution containing 400 nM Calcein AM in 100% PBS was added to each well of the plate with a Biotek uFlow Workstation. The plate was incubated for 30 minutes at room temperature before the fluorescence signal ([…]) was measured with a Perkin Elmer Envision Plate Reader.
# b) Assessment of inhibition of viral replication: The calcein-PBS solution in the 384-well cell culture plate was aspirated with a Biotek EL405 plate-washer. A volume of 20 μL of Dual-Glo luciferase buffer (Promega, Dual-Glo Luciferase Assay Reagent, cat. #E298B) was added to each well of the plate with a Biotek uFlow Workstation. The plate was incubated for 10 minutes at room temperature. A volume of 20 μL of a solution containing 1:100 mixture of Dual-Glo Stop & Glo substrate (Promega, Dual-Glo Luciferase Assay Reagent, cat. #E313B) and Dual-Glo Stop & Glo buffer (Promega, Dual-Glo Luciferase Assay Reagent, cat. #E314B) was then added to each well of the plate with a Biotek uFlow Workstation. The plate was incubated at room temperature for 10 minutes before the luminescence signal was measured with a Perkin Elmer Envision Plate Reader.
# The percent cytotoxicity was determined by calcein AM conversion to fluorescent product. The average fluorescent signal from the DMSO control wells was defined as 100% nontoxic. The individual fluorescent signal from testing compound treated well was divided by the average signal from DMSO control wells and then multiplied by 100% to get the percent viability. The percent anti-HCV replication activity was determined by the luminescence signal from the testing well compared to DMSO control wells. The background signal was determined by the average luminescence signal from the HCV protease inhibitor treated wells and was subtracted from the signal from the testing wells as well as the DMSO control wells. Following 3-fold serial dilutions, the EC50 and CC50 values were calculated by fitting % inhibition at each concentration to the following equation: % inhibition=100%/[EC50/[I])^b+1]
# Where b is Hill's coefficient. See, for reference, Hill, A. V., The Possible Effects of the Aggregation of the Molecules of Hæmoglobin on its Dissociation Curves, J. Physiol. 40: iv-vii. (1910). […]
row,Molecule,inhibition at 2 µM [%]
1,"C[C@@H]1CC[C@@H](C(=O)N(c2cc(C#CC(C)(C)C)sc2C(=O)O)[C@H]2CC[C@@H](OC3CCOC3)CC2)[C@@H](O)C1 (single isomer, unassigned) [Compound 228]",99.9
2,"CC1=CCC(C(=O)N(c2cc(C#CC(C)(C)C)sc2C(=O)O)[C@H]2CC[C@H](O[C@H]3CCOC3)CC2)[C@@H](C)C1 (single isomer, unassigned) [Compound 302, 5-(3,3-dimethyl-but-1-ynyl)-3-{(4,6S-dimethyl-cyclohex-3-enecarbonyl)-[4-(tetrahydro-furan-3S-yloxy)-trans-cyclohexyl]-amino}-thiophene-2-carboxylic acid]",100
3,"CC1=CCC(C(=O)N(c2cc(C#CC(C)(C)C)sc2C(=O)O)[C@H]2CC[C@H](O[C@H]3CCOC3)CC2)[C@H](C)C1 (single isomer, unassigned) [Compound 303]",99.9
4,"CC1=CCC(C(=O)N(c2cc(C#CC(C)(C)C)sc2C(=O)O)[C@H]2CC[C@H](O[C@@H]3CCOC3)CC2)[C@H](C)C1 (single isomer, unassigned) [Compound 305, 5-(3,3-dimethyl-but-1-ynyl)-3-{(4,6R-dimethyl-cyclohex-3-enecarbonyl)-[4-(tetrahydro-furan-3R-yloxy)-trans-cyclohexyl]-amino}-thiophene-2-carboxylic acid]",100
5,"CC1=CCC(C(=O)N(c2cc(C#CC(C)(C)C)sc2C(=O)O)[C@H]2CC[C@H](O[C@@H]3CCOC3)CC2)[C@@H](C)C1 (single isomer, unassigned) [Compound 307, 5-(3,3-Dimethyl-but-1-ynyl)-3-{(4,6S-dimethyl-cyclohex-3-enecarbonyl)-[4-(tetrahydro-furan-3R-yloxy)-trans-cyclohexyl]-amino}-thiophene-2-carboxylic acid]",100
6,"CC(C)(C)C#Cc1cc(N(C(=O)[C@H]2CC[C@H](C)CC2)[C@H]2CC[C@H](Oc3ccccn3)CC2)c(C(=O)O)s1 [Compound 1, 5-(3,3-Dimethyl-but-1-ynyl)-3-{(trans-4-methyl-cyclohexanecarbonyl)-[trans-4-(pyridin-2-yloxy)-cyclohexyl]-amino}-thiophene-2-carboxylic acid]",99.8
7,"CC(C)(C)C#Cc1cc(N(C(=O)[C@H]2CC[C@H](C)CC2)[C@H]2CC[C@H](Oc3cnccn3)CC2)c(C(=O)O)s1 [Compound 2, 5-(3,3-Dimethyl-but-1-ynyl)-3-{(trans-4-methyl-cyclohexanecarbonyl)-[trans-4-(pyrazin-2-yloxy)-cyclohexyl]-amino}-thiophene-2-carboxylic acid]",99.6
8,"Cc1ccc(O[C@H]2CC[C@H](N(c3cc(C#CC(C)(C)C)sc3C(=O)O)C(=O)[C@H]3CC[C@H](C)CC3)CC2)nn1 [Compound 3, 5-(3,3-Dimethyl-but-1-ynyl)-3-{(trans-4-methyl-cyclohexanecarbonyl)-[trans-4-(6-methyl-pyridazin-3-yloxy)-cyclohexyl]-amino}-thiophene-2-carboxylic acid]",100
9,"CC(C)(C)C#Cc1cc(N(C(=O)[C@H]2CC[C@H](C)CC2)[C@H]2CC[C@H](Oc3ncccn3)CC2)c(C(=O)O)s1 [Compound 4, 5-(3,3-Dimethyl-but-1-ynyl)-3-{(trans-4-methyl-cyclohexanecarbonyl)-[trans-4-(pyrimidin-2-yloxy)-cyclohexyl]-amino}-thiophene-2-carboxylic acid]",99.9
10,"CC(C)(C)C#Cc1cc(N(C(=O)[C@H]2CC[C@H](C)CC2)[C@H]2CC[C@H](Oc3cccnc3)CC2)c(C(=O)O)s1 [Compound 5, 5-(3,3-Dimethyl-but-1-ynyl)-3-{(trans-4-methyl-cyclohexanecarbonyl)-[trans-4-(pyridin-3-yloxy)-cyclohexyl]-amino}-thiophene-2-carboxylic acid]",99.8
11,"CC(C)(C)C#Cc1cc(N(C(=O)[C@H]2CC[C@H](C)CC2)[C@H]2CC[C@H](Oc3cccc(S(C)(=O)=O)n3)CC2)c(C(=O)O)s1 [Compound 6, 5-(3,3-Dimethyl-but-1-ynyl)-3-[[trans-4-(6-methanesulfonyl-pyridin-2-yloxy)-cyclohexyl]-(trans-4-methyl-cyclohexanecarbonyl)-amino]-thiophene-2-carboxylic acid]",99.9
12,"Cc1ccc(O[C@H]2CC[C@H](N(c3cc(C#CC(C)(C)C)sc3C(=O)O)C(=O)[C@H]3CC[C@H](C)CC3)CC2)cn1 [Compound 7, 5-(3,3-Dimethyl-but-1-ynyl)-3-{(trans-4-methyl-cyclohexanecarbonyl)-[trans-4-(6-methyl-pyridin-3-yloxy)-cyclohexyl]-amino}-thiophene-2-carboxylic acid]",99.8
13,"Cc1cccc(O[C@H]2CC[C@H](N(c3cc(C#CC(C)(C)C)sc3C(=O)O)C(=O)[C@H]3CC[C@H](C)CC3)CC2)n1 [Compound 8, 5-(3,3-Dimethyl-but-1-ynyl)-3-{(trans-4-methyl-cyclohexanecarbonyl)-[trans-4-(6-methyl-pyridin-2-yloxy)-cyclohexyl]-amino}-thiophene-2-carboxylic acid]",96.7
14,"CC(C)(C)C#Cc1cc(N(C(=O)[C@H]2CC[C@H](C)CC2)[C@H]2CC[C@H](Oc3ccc(C#N)cn3)CC2)c(C(=O)O)s1 [Compound 9, 3-[[trans-4-(5-Cyano-pyridin-2-yloxy)-cyclohexyl]-(trans-4-methyl-cyclohexanecarbonyl)-amino]-5-(3,3-dimethyl-but-1-ynyl)-thiophene-2-carboxylic acid]",99.3
15,"CC(C)(C)C#Cc1cc(N(C(=O)[C@H]2CC[C@H](C)CC2)[C@H]2CC[C@H](Oc3ccc(C(F)(F)F)cn3)CC2)c(C(=O)O)s1 [Compound 10, 5-(3,3-Dimethyl-but-1-ynyl)-3-{(trans-4-methyl-cyclohexanecarbonyl)-[trans-4-(5-trifluoromethyl-pyridin-2-yloxy)-cyclohexyl]-amino}-thiophene-2-carboxylic acid]",56.2

# Same assay, conditions: Huh-7 HCV replicon cells, 3 days incubation
row,Molecule,% inhibition at 2μM [%]
1,"5-(3,3-Dimethyl-but-1-ynyl)-3-{(trans-4-methyl-cyclohexanecarbonyl)-[trans-4-(1-oxy-pyridin-3-yloxy)-cyclohexyl]-amino}-thiophene-2-carboxylic acid [Compound 24]",99.9
2,"5-(3,3-dimethylbut-1-ynyl)-3-((1r,4R)-4-methyl-N-((1s,4S)-4-(oxetan-3-yloxy)cyclohexyl)cyclohexanecarboxamido)-5-(2-(1-(trifluoromethyl)cyclopropyl)ethynyl)thiophene-2-carboxylic acid [Compound 347]",99.97
3,"CC1=CCC(C(=O)N(c2cc(C#CC(C)(C)C)sc2C(=O)O)[C@H]2CC[C@H](O[C@@H]3CCOC3)CC2)[C@H](C)C1 (single isomer, unassigned) [Compound 306, 5-(3,3-Dimethyl-but-1-ynyl)-3-{(4,6R-dimethyl-cyclohex-3-enecarbonyl)-[4-(tetrahydro-furan-3R-yloxy)-trans-cyclohexyl]-amino}-thiophene-2-carboxylic acid]",99.99
4,"CC1=CCC(C(=O)N(c2cc(C#CC(C)(C)C)sc2C(=O)O)[C@H]2CC[C@H](O[C@@H]3CCOC3)CC2)[C@@H](C)C1 (single isomer, unassigned) [Compound 308, 5-(3,3-Dimethyl-but-1-ynyl)-3-{(4,6S-dimethyl-cyclohex-3-enecarbonyl)-[4-(tetrahydro-furan-3R-yloxy)-trans-cyclohexyl]-amino}-thiophene-2-carboxylic acid]",99.99
